Target: T1, Alpha-1A adrenergic receptor (Homo sapiens, UniProt P35348)
T1 sequence (P35348 whole entry): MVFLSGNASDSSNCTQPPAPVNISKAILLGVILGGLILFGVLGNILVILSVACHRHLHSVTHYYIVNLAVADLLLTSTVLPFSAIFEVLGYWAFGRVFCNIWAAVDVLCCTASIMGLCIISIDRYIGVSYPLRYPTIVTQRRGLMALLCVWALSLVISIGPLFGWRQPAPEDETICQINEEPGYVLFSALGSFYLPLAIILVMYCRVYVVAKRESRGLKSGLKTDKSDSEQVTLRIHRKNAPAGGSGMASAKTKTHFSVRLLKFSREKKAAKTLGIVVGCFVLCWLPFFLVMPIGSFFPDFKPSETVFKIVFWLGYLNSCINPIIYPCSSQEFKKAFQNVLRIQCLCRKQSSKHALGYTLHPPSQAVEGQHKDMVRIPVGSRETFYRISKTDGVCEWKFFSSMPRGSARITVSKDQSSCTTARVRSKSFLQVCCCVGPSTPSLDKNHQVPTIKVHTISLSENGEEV
Assay: Inhibition of [3H]prazosin binding to human adrenergic alpha-1A receptor expressed in CHO-K1 cell membranes

Ki [nM] | SMILES
3.6 | COc1ccccc1N1CCN(CCCNc2cc(O)nc(Nc3c(Cl)cccc3Cl)n2)CC1
300 | Clc1ccc(C2(Cn3ccnc3)OCC(CN3CCN(CCc4ccccc4)CC3)O2)c(Cl)c1 (centres undefined)
1.4 | O=C(NCCCCN1CCN(c2csc3cc(F)ccc23)CC1)c1cnccn1
9.5 | Nc1ccc(C(=O)NCCN2CCC(c3cccc4[nH]ccc34)CC2)cc1

Source: ChEMBL document CHEMBL1142661, “Structure-based drug discovery using GPCR homology modeling: successful virtual screening for antagonists of the alpha1A adrenergic receptor” (J Med Chem, 2005)
